Experimental data: patent US20170234881A1, “METHODS OF DIAGNOSING AND TREATING CANCER” (INSERM ( INSTITUT NATIONAL DE LA SANTÉ ET DE LA RECHERCHE …, priority 2014, published 2017)

Experiments:
[1] = tested on: MCF7 cells; experiment: Cell invasion assay (matrigel-coated filters), MCF7; type: cell-based, human; settings: concentration-dependent, level reached
Description: FIG. 2. OCDO is a tumor promoter in vitro and in vivo and its inhibition contributes to the anti-tumor effects of Tam and DDA. (A, B) Histograms representing the effect of OCDO or 17β-estrogen (E2) on MCF7 (A) and TS/A (B) cell proliferation after 24 h treatment using a colorimetric immunoassay measuring BrDU incorporation in DNA (C, D) Histogram representing the effect of OCDO on MCF7 (C) and TS/A (D) cell invasion. Data are the mean of three separate experiments (±s.e.m), *P<0.05, **P<0.01, ***P<0.001 (Student's t-test). (E, F) Mice were implanted s.c. with MCF7 (E) or TS/A (F) cells and animals (8 per group) were treated s.c. every day starting on the day of implantation with either the solvent vehicle or OCDO (16 μg/kg for MCF7 or 50 μg/kg for TS/A). Animals were monitored for tumour growth twice a week. The data are representative of three independent experiments. The mean tumor volume±s.e.m is shown, *P<0.05, **P<0.01, ***P<0.001 (analysis of variance (ANOVA), Dunnett's post test). (G) Mean (±s.e.m) of Ki67 positive cell number determined from IHC staining of MCF7 tumor sections from (E), n=8, *P<0.05 (Student's t-test) using HistoQuant, Pannoramic Viewer (3DHistech). […]
Invasion assays were carried out using Bio-Coat migration chambers (BD Falcon) with 8 μm filters previously coated with matrigel. […] The entire membranes were mounted on glass slides, and were counted under a microscope. […]

[2] = tested on: MCF7 cells; experiment: Cell proliferation assay (BrDU incorporation), MCF7; type: cell-based, human; settings: MCF7 cells treated 24 h, concentration-dependent, level reached
Description: FIG. 2. OCDO is a tumor promoter in vitro and in vivo and its inhibition contributes to the anti-tumor effects of Tam and DDA. (A, B) Histograms representing the effect of OCDO or 17β-estrogen (E2) on MCF7 (A) and TS/A (B) cell proliferation after 24 h treatment using a colorimetric immunoassay measuring BrDU incorporation in DNA (C, D) Histogram representing the effect of OCDO on MCF7 (C) and TS/A (D) cell invasion. Data are the mean of three separate experiments (±[…]) Mice were implanted s.c. with MCF7 (E) or TS/A (F) cells and animals (8 per group) were treated s.c. every day starting on the day of implantation with either the solvent vehicle or OCDO (16 μg/kg for MCF7 or 50 μg/kg for TS/A). Animals were monitored for tumour growth twice a week. The data are representative of three independent experiments. The mean tumor volume±s.e.m is shown, *P<0.05, **P<0.01, ***P<0.001 (analysis of variance (ANOVA), Dunnett's post test). […] (I, J, K). Murine […], or human MDA-MB231 (J) or MDA-MB468 (K) cells implanted s.c. into mice (8 per group) and animals were treated s.c. with either the solvent vehicle or OCDO (16 μg/kg for MDA-MB-231 and MDA-MB-468 or 50 μg/kg for E0771). […] At the end of this time, cells were incubated with BrDU for an additional 8 h and then evaluated for proliferation using the ELISA kit, Roche Diagnostic, as indicated by the manufacturer.

SMILES: CC(C)CCC[C@@H](C)[C@H]1CC[C@H]2[C@@H]3CC(=O)[C@@]4(O)C[C@@H](O)CC[C@]4(C)[C@H]3CC[C@]12C [OCDO, 6-oxo-cholestan-3β,5α-diol]
- invasiveness compared with the control [1]: 6 fold
- growth rate (cell proliferation) relative to the control [2]: 1.3 fold
